From US20080039444A1, “COMPOUNDS” (GLAXO GROUP LIMITED, priority 2006, published 2008)

Columns and labels:
human H1 receptor [1] = molecular target: T1, human H1 receptor (Homo sapiens, UniProt P35367); assay: Histamine H1 functional antagonist assay (FLIPR): determination of antagonist pA2; format: cell-based
T1 construct: expressed in transfected cells
Experimental: (§1) The human H1 receptor is cloned using known procedures described in the literature [Biochem. Biophys. Res. Commun., 201(2):894 (1994)]. Chinese hamster ovary (CHO) cells stably expressing the human H1 receptor are generated according to known procedures described in the literature [Br. J. Pharmacol., 117(6):1071 (1996)].
(§2) Histamine H1 functional antagonist assay: Determination of antagonist pA2 and duration
The histamine H1 receptor expressing CHO cells are seeded into non-coated black-walled clear bottom 96-well tissue culture plates as described above. Following overnight culture, growth medium is removed from each well, washed with 200 μl phosphate buffered saline (PBS) and is replaced with 50 μl loading dye (250 μM Brilliant Black, 1 μM Fluo-4 diluted in Tyrodes buffer+probenecid (145 mM NaCl, 2.5 mM KCl, 10 mM HEPES, 10 mM D-glucose, 1.2 mM MgCl2, 1.5 mM CaCl2, 2.5 mM probenecid, pH adjusted to 7.40 with NaOH 1.0 M)). Cells are incubated for 45 min at 37° C. The loading buffer is removed and the cells are washed as above, and 90 μl of Tyrodes buffer+probenecid is added to each well. 10 μl of test compound, diluted to the required concentration in Tyrodes buffer+probenecid (or 10 μl Tyrodes buffer+probenecid as a control) is added to each well and the plate is incubated for 30 min at 37° C., 5% CO2. The plates are then placed into a FLIPR™ (Molecular Devices, UK) to monitor cell fluorescence (λex=488 nm, λEM=540 nm) in the manner described in Sullivan et al., (In: Lambert DG (ed.), Calcium Signaling Protocols, New Jersey: Humana Press, 1999, 125-136) before and after the addition of 50 μl histamine over a concentration range of 1 mM-0.1 nM. The resultant concentration response curves are analysed by non-linear regression using a standard four parameter logistic equation to determine the histamine EC50, the concentration of histamine required to produce a response of 50% of the maximum response to histamine. The antagonist pA2 is calculated using the following standard equation: pA2=log(DR-1)- log[B] where DR=dose ratio, defined as EC50antagonist-treated/EC50control and [B]=concentration of antagonist.

human H1 receptor [2] = molecular target: T1, human H1 receptor; assay: Histamine H1 functional antagonist assay: antagonist duration after washout; format: cell-based; details: at one or more time points
Experimental: as §1, §2
To determine the antagonist duration, cells are cultured overnight in non-coated black-walled clear bottom 96-well tissue culture plates, are washed with PBS and are incubated with a concentration of antagonist chosen to give an approximate DR in the range 30-300. Following the 30 min antagonist incubation period, the cells are washed two or three times with 200 μl of PBS and then 100 μl Tyrodes buffer is added to each well to initiate antagonist dissociation. Following incubation for predetermined times, typically 30-270 min at 37° C., the cells are then washed again with 200 μl PBS and are incubated with 100 μl Tyrodes buffer containing Brilliant Black, probenecid and Fluo-4 for 45 min at 37° C., as described above. After this period, the cells are challenged with histamine in the FLIPR™ as described above. The dose ratio at each time point is used to determine the fractional H1 receptor occupancy by the following equation: fractional receptor occupancy=(DR-1)/DR. The decrease in receptor occupancy over time approximates to a straight line and is analysed by linear regression. The slope of this straight line fit is used as an index of the dissociation rate of the antagonist. The dose ratios for antagonist treated cells and for antagonist treated and washed cells at each time point are used to calculate a relative dose ratio (rel DR) which is also used as an index of antagonist duration. Antagonists with long duration of action produce rel DR values close to 1, and antagonists with short duration of action produce rel DR values that approaches the dose ratio value obtained for antagonist treatment alone.

T1 sequence (P35367 whole entry): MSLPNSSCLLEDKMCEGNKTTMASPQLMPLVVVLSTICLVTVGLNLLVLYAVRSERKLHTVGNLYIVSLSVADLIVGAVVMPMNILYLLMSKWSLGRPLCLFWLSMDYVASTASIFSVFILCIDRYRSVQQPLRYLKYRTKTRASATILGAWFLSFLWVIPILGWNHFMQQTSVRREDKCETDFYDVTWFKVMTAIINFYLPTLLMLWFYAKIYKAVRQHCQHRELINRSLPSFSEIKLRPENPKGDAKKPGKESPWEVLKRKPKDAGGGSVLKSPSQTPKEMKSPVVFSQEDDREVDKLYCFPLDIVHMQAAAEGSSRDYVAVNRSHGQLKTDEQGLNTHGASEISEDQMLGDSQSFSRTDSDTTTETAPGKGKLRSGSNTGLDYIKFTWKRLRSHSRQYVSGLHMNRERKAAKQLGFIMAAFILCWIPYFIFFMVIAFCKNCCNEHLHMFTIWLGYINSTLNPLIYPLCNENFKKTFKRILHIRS

Question: `O=c1c2ccccc2c(Cc2ccc(Cl)cc2)nn1C[C@H]1CCCN1CCCCc1ccc(OCCCN2CCCCCC2)cc1` [Example 24, 4-[(4-Chlorophenyl)methyl]-2-({(2R)-1-[4-(4-{[3-(hexahydro-1H-azepin-1-yl)propyl]oxy}phenyl)butyl]-2-pyrrolidinyl}methyl)-1(2H)-phthalazinone free base] was tested. Which Kb (human H1 receptor [1]) did it give?
Answer: Its Kb is roughly 1.26 nM.

Question: What about the “duration of action compared with azelastine in the histamine H1 functional antagonist assay” value (human H1 receptor [2]) of the same molecule?
Answer: The value was “significantly longer duration of action than azelastine”.
